One may read the melting point as the temperature of the solid-liquid transition. Compound `COc1ccc(CN(CCN(C)CCCCCCNC(=NCCCOc2cccc(CN3CCCCC3)c2)NC#N)c2ccccn2)cc1` registered a melting point of 79 °C. The figure for `COC(=O)c1ccc2c(c1)S(=O)(=O)c1ccccc1N=C2Cl` is 254 to 256 °C; for `Cc1nc2ccccn2c(=O)c1CCN1CCc2oc3ccccc3c2C1` it is 186 °C. In turn, `CC(C)Oc1ccccc1-c1cc(=O)c2cc(C#N)ccc2o1` registered a melting point of 172 to 175 °C.

As to `Cc1ccccc1OCCCN1CCC(C(O)(c2ccc(F)cc2)c2ccc(F)cc2)CC1`, the melting point was 108 to 109 °C. On to `COc1ccc(N2CCOCC2)c2sc(C(=O)NC3CCCCC3=O)nc12` (stereo not drawn), for which the melting point was found to be 165 °C.

`CCOC(=O)c1cccc2c1CCC2C#N` (stereo not drawn) displayed a melting point of 93 to 95.5 °C. In the case of `CCCCc1c(/C=C/C(=O)O)ccc2c(OC)cccc12`, the melting point lay within 202 to 204 °C.

Regarding `N=C(N)Nc1ncc(Cl)c2ccc(C(=O)NCCC(=O)O)cc12`, the melting point lay in the range of 235 to 236 °C.

The compound `CN(C)CC(=O)Nc1cccc(-c2cc(-c3ccccc3O)nc(NC(=O)c3cccs3)c2C#N)c1` returned a melting point of 220 to 221 °C. As to `Clc1c(I)c(Cl)c(I)c(Cl)c1I`, the melting point was greater than 300 °C. For `CC(Oc1ccc(N(C)c2cnc3cc(Cl)ccc3n2)cc1)C(=O)O` (stereo not drawn), the melting point is 204 °C.

`Clc1ccc(Nc2nncc3ccccc23)cc1` returned a melting point of 211 °C. `CNc1cccc(C(=O)O)c1C`: the melting point fell in the range of 165 to 167 °C. The compound `CC1(C)CC(O)CC(C)(C)N1Cc1ccc(CN2C(C)(C)CC(O)CC2(C)C)cc1` returned a melting point of 237 to 239 °C. `CNC(=S)N1CCCC(N2CCC(Nc3nc4ccccc4n3Cc3ccc(F)cc3)CC2)C1` (stereo not drawn) yielded a melting point of 219 °C. As to `C#CCOc1ccc(C)cc1S(=O)(=O)NC(=O)Nc1nc(Cl)cc(OC)n1`, the melting point lay within 202 to 204 °C. In the case of `COc1ccc(S(=O)(=O)N2c3cc(Br)sc3-c3ccccc3[C@H]2C)cc1`, the melting point was in the range of 136 to 138 °C. On to `COc1ccccc1N1CCN(CCCNC(=O)c2cccc3c(=O)c(C)c(C4(C)CCCCC4)oc23)CC1`, for which the melting point was in the range of 120 to 124 °C. As for `O=Cc1cc(Br)cnc1Cl`, the melting point is 88 to 89 °C.

Compound `S=C(Cc1ccccc1N1CCOCC1)N1CCOCC1` returned a melting point of 140 °C. In turn, `COc1cc(Br)c(I)cc1OC` gave a melting point of 98 to 100 °C. For `Cc1cc(-c2cccc(CO)c2)cn2cc(-c3ccc(Cl)cc3)nc12`, the melting point was 174 to 177 °C. Next, `COc1ccc(C(=O)Nc2ccccc2)cc1NC(=S)Nc1cccc(C)c1`: 168 to 171 °C; `CCOC(=O)C(C)Cc1cccc(-c2nc(=O)c3ccccc3s2)n1` (stereo not drawn): 120 to 121 °C. Next, `COc1cc2c(C)c(-c3ccccc3)sc2c(Cl)c1Cl`: 138 °C; `CCc1ccc(Nc2c(F)c(F)cc(F)c2F)c(CC(=O)N(C)C)c1`: 105 to 106 °C. Next, `CC(=O)OCc1nc2sc(S(N)(=O)=O)cc2c(=O)n1-c1ccccc1Cl`: 192 to 194 °C. `CCN1C(=O)C(C(=O)Nc2ccc(F)cc2)c2cc3c(cc21)CC(C)(C)O3` (stereo not drawn) gave a melting point of 160 to 162 °C. Take `CC(C)c1cccc(C(C)C)c1NC(=O)Nc1ccccc1CCc1cc(C(C)(C)C)c(O)c(C(C)(C)C)c1`: the melting point is 209 to 210 °C. For the compound `CC=CC(=O)Nc1c(C(O)(C(F)(F)F)C(F)(F)F)ccc2ccccc12`, the melting point lay in the range of 216 to 217 °C. Next, `CCCCN(CCCC(=O)O)C(=O)c1ccccc1`: 62 to 64 °C. `O=C(CCC(=O)N1CCC(c2ccc(Cl)cc2)CC1)c1ccc2c(c1)CN(Cc1ccccc1)CC2` registered a melting point of 102 to 103 °C.

`COC(=O)c1ccc(/C=C\[C@@H]2C[C@@H](NS(=O)(=O)c3ccc(Cl)cc3)CN2)cc1`: the melting point lay within 189 to 190 °C. For `CCCCCC/C(=C\c1ccccc1)C1O[C@@H](C(=O)OC)[C@H](C(=O)OC)O1`, the melting point was 49 to 50 °C. The figure for `CC(C)C(c1cncnc1C(F)(F)F)N1CCN(c2ccccc2)C1=O` (stereo not drawn) is 126 to 128 °C; for `COC(=O)c1ccc(N2CCN(S(C)(=O)=O)CC2)nc1` it is 205 to 207 °C; for `Cn1c(=O)c2c(nc3n2CC(O)CN3Cc2ccccc2)n(C)c1=O` (stereo not drawn) it is 225 to 227 °C. `O=C(O)CCCCCCCNS(=O)(=O)c1ccccc1` displayed a melting point of 82 to 84 °C. Compound `O=C(O)CCC(=NOCc1ccc(OCc2cn3c(-c4ccccc4)cccc3n2)cc1)c1ccccc1` came in with a melting point of 160 to 161 °C. Compound `Nc1nc(N)c2ncn(COCCOCCO)c2n1` registered a melting point of 76 to 82 °C. The compound `O=C(O)[C@H](Cc1ccccc1)NC(=O)[C@@H]1CCCN1S(=O)(=O)c1ccc([N+](=O)[O-])cc1` gave a melting point of 70 to 80 °C.

For `Cc1c(N2C[C@@H](N)[C@@H](C(F)F)C2)c(F)cc2c(=O)c(C(=O)O)cn([C@@H]3C[C@@H]3F)c12`, the melting point lay in the range of 214 to 216 °C. With `O=c1nccc2sc3cc(-c4ccccc4)ccc3n12`, the melting point lay in the range of 196 to 197 °C. Consider `O=C(Nc1cccc(Cc2ccccc2)c1)N1CCc2c(cnc3[nH]ncc23)C1`, for which the melting point was 175 to 178 °C. Next, `O=C(NO)[C@H](CNS(=O)(=O)c1ccc(OCc2cc(Cl)cc(Cl)c2)cc1)N1CCCCC1`: 130 °C. The compound `CNC(=O)C1SCSC(=NO)S1` (stereo not drawn) showed a melting point of 129 to 130 °C. `CCCC1=C(C#N)C(c2ccccc2Cl)c2c(n[nH]c2C2CCCC2)N1` (stereo not drawn) showed a melting point greater than 270 °C. The compound `CC(C)CC(=O)C(=O)OCc1ccccc1` gave a melting point of 98 to 100 °C. For `CCN(CC)C(Cc1cccs1)=Nc1ccc2sc3ccccc3c2c1`, the melting point was 114 to 115 °C.

In the case of `O=C(O)c1ccc(NCC=Cc2ccccc2)cn1`, the melting point was in the range of 178 to 183 °C. With `CCC(CC)Nc1ncnc2c1ncn2C`, the melting point lay within 107 to 109 °C. Next, `CCN1CCN(c2ccc(Nc3cc(-c4cnc5cc[nH]c5c4)cn4ccnc34)nc2)CC1`: 227 to 230 °C; `CC(=O)N1N=C(c2ccc([N+](=O)[O-])cc2)c2cc3c(cc2C=C1C)OCCOC3`: 202 to 204 °C. Turning to `C=CCCn1cc([N+](=O)[O-])nc1Br`, the melting point was 28 to 30 °C. Next, `[N-]=[N+]=N[Si](c1ccccc1)(c1ccccc1)c1ccccc1`: 82 to 84 °C.

Consider `CCOC(=O)c1cnc(Cc2ccccc2)c(C)c1Cl`, for which the melting point was in the range of 233 to 245 °C. On to `CCOC(=O)c1cc(C(=O)NC)nc(C(=O)NC)c1`, for which the melting point lay within 183 to 184 °C. The compound `O=c1cc(CO)n(Cc2ccccc2)cc1OCc1ccccc1` gave a melting point of 146 to 147 °C. `Cc1ccccc1/C=C/c1nc(COc2ccc(CCCCn3ccnc3CCO)cc2)co1` had a melting point of 91 to 93 °C. The compound `CC(C)(C)OC(=O)NCCc1cccc(OCCC2Oc3ccccc3N(Cc3cccc(Cl)c3)C2=O)c1` (stereo not drawn) returned a melting point of 107 to 108 °C. The compound `OCc1ccc2oc(-c3ccc(O)cc3)cc2c1` had a melting point of 248 to 250 °C. `c1ccc(Oc2cccc(Nc3nnc(Cc4ccncc4)c4ccccc34)c2)cc1` had a melting point of 186 to 189 °C.

Compound `COC(=O)NCc1nc2ccn(Cc3ccc(F)cc3)cc-2n1` came in with a melting point of 179 °C.

In turn, `OC/C=C/c1ccc(OCc2coc(-c3ccccc3)n2)c(F)c1` gave a melting point of 134 to 135 °C. In the case of `COC(=O)C(C)(C)Sc1cccc(OC(=O)Nc2ccc(C(F)(F)F)cc2)c1`, the melting point was 66 to 67 °C. For `COc1cc(-c2ncsc2-c2ccc(C(F)(F)F)cc2)cc(OC)c1OC`, the melting point was in the range of 110 to 113 °C.

`CCc1ccc(SC(=NNc2ccc(OC)cc2)C(C)=O)cc1` displayed a melting point of 106 to 108 °C. Compound `CC1Cc2ccccc2C1=NO` (stereo not drawn) gave a melting point of 82 to 91 °C. Take `Nc1ccc(CN2CCN(c3ccccc3)CC2)cc1`: the melting point was 105 °C. Consider `FC(F)(F)c1cccc(-c2cnnn2-c2cc(Cl)ccc2-c2nnn[nH]2)c1`, for which the melting point fell in the range of 230 to 232 °C.

As for `COC(C)C(=O)Nc1c(C(=O)c2ccccc2)[nH]c2cc(Cl)ccc12` (stereo not drawn), the melting point is 169 to 171 °C. The compound `CCCc1nc(SC(F)F)c(C(=O)O)n1Cc1ccc(-c2ccccc2S(=O)(=O)NC(=O)NCc2ccccc2)cc1` gave a melting point of 150 °C. For `CN1CCC(c2c[nH]c3ccc(NC(=O)c4sccc4Br)nc23)CC1`, the melting point was 245 to 247 °C. For the compound `CCC(Oc1ccc2nc(NC(=O)NCCN3CCOCC3)sc2c1)c1c(Cl)cccc1Cl` (stereo not drawn), the melting point is 200 °C.

`Cc1cc(O)c(O)c(O)c1` gave a melting point of 114 to 121 °C. The figure for `Cn1cc(C(=O)NCc2ccc(Cl)cc2)c(=O)c2cc(CN3CCCSCC3)ccc21` is 166 to 167 °C.

With `COC(=O)Cc1ccc2c(c1)C(=O)Cc1ccccc1C2`, the melting point lay in the range of 111 to 112 °C. In turn, `Fc1ccc2c(c1)C1OC1c1ccccc1C2` (stereo not drawn) came in with a melting point of 239 °C. For `CC1(C)CC(OC(=O)CCCCCCCCC(=O)OC2CC(C)(C)N(OCc3ccccc3)C(C)(C)C2)CC(C)(C)N1OCc1ccccc1`, the melting point lay within 58 to 61 °C. `CS(=O)(=O)c1ccc(-n2nc(C(F)F)cc2-c2nc3cccc(F)c3s2)cc1`: the melting point was in the range of 193 to 195 °C. Turning to `COC1(c2cccc(O)c2)OOC12C1CC3CC(C1)CC2C3` (stereo not drawn), the melting point was 135 °C. Next, `O=C(O)Cc1cccc(OCc2cn(-c3ccc(C(F)(F)F)cn3)nc2C2CCCCC2)c1`: 129 to 130 °C; `C=CCC(C#N)(C#N)Cc1ccc([N+](=O)[O-])cc1`: 94.2 °C. The compound `CC(C)(C)OC(=O)N1CCC(c2c(F)cc(N3C[C@H](CN=[N+]=[N-])OC3=O)cc2F)CC1` registered a melting point of 125 to 127 °C. In turn, `CCC1(O)CC2CC[C@]1(CS(=O)(=O)N1CCC3(C=Cc4ccccc43)CC1)C2(C)C` (stereo partly drawn) gave a melting point of 171 to 173 °C. Next, `Cc1cc(C)c(Nc2nc(Nc3ccc(C#N)cc3)ncc2N)c(C)c1`: 224 to 225 °C. Turning to `C=CCN(CC=C)c1nc(NC(=O)c2ccco2)n2oc(=O)nc2n1`, the melting point fell in the range of 159 to 162 °C.

The values are drawn from a melting point compilation (Tetko et al.; mined from patent text by program, amines drawn as free bases though some values may be those of a salt).
